Two molecules from US20150258107A1, “METHODS AND COMPOSITIONS FOR TREATING DEPRESSION” (DemeRx, Inc., priority 2014, published 2015) can be followed below.

For series [1], the system named is Sprague-Dawley rats. Briefly: Fourteen day repeat dose toxicity in rats. It is filed as in vivo, rat. The method, then: This study was conducted to evaluate the toxicity profile of noribogaine-HCl following oral (gavage) administration to the rat for 14 days following Table 2 below:
Male and female Sprague-Dawley rats, 10/sex/group, were administered 0, 25, 50 or 100 mg/kg noribogaine HCl daily by single oral gavage for 14 days. An additional 5 rats/sex/group in the 0 (control) and 100 mg/kg groups were retained for a 28 day recovery period during which no drug was administered. Six rats/sex/group (3 rats/sex controls) were similarly dosed and sampled on study days 1 and 14 for analysis of noribogaine-HCl concentrations in the blood.

Series [2] is described as follows: Human pharmacokinetic study, single oral tablet, fasting healthy volunteers (serum levels). It counts as in vivo. Conditions: 3, 10, 30 or 60 mg once orally, healthy volunteers. The method, then: In double blind studies, fasting healthy volunteers (6 per cohort) were treated once orally with a tablet of noribogaine HCl. In escalating cohorts, the volunteers received 3 mg, 10 mg, 30 mg or 60 mg noribogaine.

Series [3] relates to Sprague-Dawley rat. Kind of series: Single dose toxicity in rats. It counts as in vivo. How it is done:
The objective of this study was to determine the toxicity and toxicokinetic profile of noribogaine HCl following a single oral (gavage) administration in the Sprague-Dawley rat. A single dose of 100, 300 and 800 mg/kg (achieved with doses of 400 mg/kg 3 h+/−30 min apart because of the limitations of maximum dose formulation concentration). Five male rats/group were used. […] Hypoactivity, vocalization, chewing movements, changes in respiration/posture, salivation, stimuli sensitivity, tremors, twitches and penile erection occurred prior to death. […] The NOAEL was determined to be 100 mg/kg.

Series [4] relates to dogs. Briefly: Fourteen day repeat dose toxicity in dogs. It is filed as in vivo, dog. The method, then:
The objective of this study was to determine the toxicity profile of noribogaine HCl given following oral (gavage) administration to dogs for 14 days according to the following Table 3 below:
Noribogaine HCl was administered to groups of 4 male and 4 female dogs by single oral gavage daily for 14 days at doses of 0, 0.5, 1.0 and 5.0 mg/kg/day. An additional group of 4 male and 4 female dogs received either the vehicle control or 5.0 mg/kg/day for 14 days and were held for an additional 28 days after cessation of dosing to assess recovery from any potential drug-induced changes. The study was conducted under GLP guidelines and included comprehensive examinations of clinical signs, body weight, clinical pathology parameters, ophthalmologic examinations, ECG recordings and analyses of plasma for bioanalytical measurement of drug levels at appropriate intervals during the study. At the termination of the dosing phase and at the termination of the recovery phase, all dogs were subjected to a complete post-mortem examination including gross examination of major organs and histologic examination of an extensive list of tissues. Additional sections of brain were obtained from cerebrum, cerebellus, brain stem and spinal cord and examined histologically to evaluate potential effects on brain histopathology. In addition, these sections were examined with immunohistochemical stains for GFAP for evidence of gliosis and Calbindin for a more comprehensive examination of cerebellar Purkinje cells.

Series [5] in a line: Pharmacokinetics of noribogaine in healthy male volunteers (plasma and urine, LCMSMS). The settings on record: for AUC0-216 / AUC0-∞ / Cmax / Tmax / t½: mean (SD).
[6] abbreviates: glucuronide in plasma after 30 mg noribogaine (n = 6).
[7] abbreviates: glucuronide in plasma after 60 mg noribogaine (n = 6).
The mark [8] stands for this setting: plasma, 30 mg and 60 mg dose groups.

`CC[C@@H]1C[C@H]2CC3c4[nH]c5ccc(O)cc5c4CCN(C2)C31.Cl` [noribogaine HCl]: the Body weight change is −2.6% in series [1] (100 mg/kg, females) and −5.5% in series [1] (100 mg/kg, males). Besides, the Food consumption change in series [1] (100 mg/kg, males and females) is on record as −4.7%. Further, in series [1] (25, 50 or 100 mg/kg daily oral gavage, 14 days), the “Test article-related effects on mortality, clinical signs, ophthalmoscopy, hematology, coagulation, clinical chemistry, urinalysis, gross necropsy, histopathology” value was “no test article-related effects”. Also, in series [1] (14 days oral gavage), the “Brain sections stained for GFAP or Calbindin” value was “No treatment-related differences”. For the same molecule, the NOAEL is on record as 100 mg/kg in series [1] (14 days oral gavage, highest dose tested); 100 mg/kg in series [3] (single oral gavage, male rats); 1 mg/kg/day in series [4] (14 days oral gavage, based on lacrimal gland changes at 5 mg/kg/day). The Liver weight entry in series [1] (mid- and high dose groups) is “Minor increases in liver weight”. Besides, the “Clinically relevant adverse effects” value in series [2] is “no clinically relevant adverse effects were observed”. Besides, the Treatment related signs entry in series [3] (100 mg/kg) is “did not show any treatment related signs”. The “Rats with clinical signs (hypoactivity, vocalization, salivation, stimuli sensitivity, loss of limb function, lying on cage floor) persisting until Day 2” value in series [3] (300 mg/kg) is 3/5. In addition, the Mortality entry in series [3] (800 mg/kg (two doses of 400 mg/kg 3 h apart), oral gavage, 5 male rats) is “Mortality occurred in all male rats”. Besides, in series [3] (800 mg/kg group), the “Time of mortality after administration of the second dose” value was 2 to 3 h. Moreover, the “Lacrimal gland changes (only target tissue)” value in series [4] (5 mg/kg/day) was “slight to moderate atrophy and degeneration of the acinar cells”. Also, in series [4] (5 mg/kg/day recovery group), the “Lacrimal gland change after 28 days recovery” value is listed as “clear evidence of regeneration”. In addition, in series [4] (0.5, 1.0, 5.0 mg/kg/day oral gavage 14 days, dosing or recovery phase), the “Adverse effect in clinical observations, body weights, clinical pathology, ophthalmology, ECG, gross lesions” value is on record as “No evidence of adverse effect”.
Consider `CC[C@H]1C[C@@H]2C[C@H]3c4[nH]c5ccc(OC6OC(C(=O)O)C(O)C(O)C6O)cc5c4CCN(C2)[C@@H]13` (stereo partly shown) [Noribogaine glucuronide, noribogaine glucuronide], for which the “Proportion of Cmax and AUC relative to noribogaine” value in series [5] (both dose groups (30 mg, 60 mg)) is recorded as 3-4%. Further, in series [5] (setting [6]), the AUC0-216 is 25.7 (9.1) ng · hr/ml, the “AUC0-∞” value was 25.8 (9.3) ng · hr/ml, the Cmax is 1.8 (0.6) ng/ml and the Tmax is on record as 3.0 (0.6) hr. For the same molecule, the t½ in series [5] (setting [6]) was 20.6 (4.9) hr. Besides, in series [5] (setting [7]), the AUC0-216 was 65.0 (21.5) ng · hr/ml, the “AUC0-∞” value is listed as 67.1 (21.9) ng · hr/ml, the Cmax is 4.1 (1.2) ng/ml and the Tmax is 3.8 (1.2) hr. Moreover, in series [5] (setting [7]), the t½ is listed as 23.1 (3.0) hr. In series [5] (setting [8]), the Mean half-life lay within 21 to 23 h and the “Time of peak concentrations after noribogaine dosing” value is 3 to 4 h. The “Time by which detected in all subjects” value in series [5] (plasma, after 30 mg and 60 mg noribogaine) was at most 0.75 h.
